Reference: ChEMBL document CHEMBL5137095, “N-Benzyl Benzamide Derivatives as Selective Sub-Nanomolar Butyrylcholinesterase Inhibitors for Possible Treatment in Advanced Alzheimer's Disease” (J Med Chem, 2022)

Assays:
PC-12 [1] = test: Cytotoxicity against rat PC-12 cells assessed as reduction in cell viability at 10 uM by MTT assay; assay type: toxicity, cell-based; details: pc-12, 10 µM
[2] = Cytotoxicity against rat PC-12 cells assessed as cell survival rate at 10 uM by MTT assay; assay type: toxicity, cell-based; details: read-out: Activity
BV-2 = test: Cytotoxicity against mouse BV-2 cells assessed as reduction in cell viability at 10 uM by MTT assay; assay type: toxicity, cell-based; details: bv-2, 10 µM
[3] = Permeability of compound incubated for 18 hrs by PAMPA-BBB assay; assay type: ADME; details: read-out: permeability
SH-SY5Y [4] = test: Neuroprotective activity against amyloid beta (1 to 42)-induced cell damage in human SH-SY5Y cells assessed as cell survival at 5 uM pretreated for 2 hrs followed by amyloid beta (1 to 42) addition and measured after 24 hrs by MTT assay; assay type: functional; details: time 26 hrs, read-out: Activity
SH-SY5Y [5] = test: Neuroprotective activity against amyloid beta (1 to 42)-induced cell damage in human SH-SY5Y cells assessed as cell survival at 2 uM pretreated for 2 hrs followed by amyloid beta (1 to 42) addition and measured after 24 hrs by MTT assay; assay type: functional; details: time 26 hrs, read-out: Activity
[6] = n-octanol-water partition coefficient, log P of the compound by HPLC analysis; assay type: physicochemical
SH-SY5Y [7] = test: Cytotoxicity against human SH-SY5Y cells assessed as reduction in cell viability at 10 uM by MTT assay; assay type: toxicity, cell-based
[8] = Cytotoxicity against human SH-SY5Y cells assessed as cell survival rate at 10 uM by MTT assay; assay type: toxicity, cell-based; details: read-out: Activity
PC-12 [9] = test: Neuroprotective activity against H2O2-induced cell damage in rat PC-12 cells assessed as survival rate at 5 to 10 uM pretreated for 2 hrs followed by H2O2 addition and measured after 24 hrs by MTT assay; assay type: functional; details: dose 5-10 µM, time 26 hrs
[10] = Cytotoxicity against mouse BV-2 cells assessed as cell survival rate at 10 uM by MTT assay; assay type: toxicity, cell-based; details: read-out: Activity
HT-22 = test: Cytotoxicity against mouse HT-22 cells assessed as reduction in cell viability at 10 uM by MTT assay; assay type: toxicity, cell-based; details: ht-22, 10 µM
[11] = Cytotoxicity against mouse HT-22 cells assessed as cell survival rate at 10 uM by MTT assay; assay type: toxicity, cell-based; details: read-out: Activity
SH-SY5Y [12] = test: Neuroprotective activity against amyloid beta (1 to 42)-induced cell damage in human SH-SY5Y cells assessed as cell survival rate at 25 uM pretreated for 2 hrs followed by amyloid beta (1 to 42) addition and measured after 24 hrs by MTT assay; assay type: functional; details: time 26 hrs
Cholinesterase [13] = target: Cholinesterase (Homo sapiens, UniProt P06276); test: Inhibition of human BChE using acetylthiocholine iodide or butyrylthiocholine iodide as substrate preincubated for 5 mins followed by substrate addition by Ellman's method
Chain of Cholinesterase (Homo sapiens, UniProt P06276) (P06276 whole entry): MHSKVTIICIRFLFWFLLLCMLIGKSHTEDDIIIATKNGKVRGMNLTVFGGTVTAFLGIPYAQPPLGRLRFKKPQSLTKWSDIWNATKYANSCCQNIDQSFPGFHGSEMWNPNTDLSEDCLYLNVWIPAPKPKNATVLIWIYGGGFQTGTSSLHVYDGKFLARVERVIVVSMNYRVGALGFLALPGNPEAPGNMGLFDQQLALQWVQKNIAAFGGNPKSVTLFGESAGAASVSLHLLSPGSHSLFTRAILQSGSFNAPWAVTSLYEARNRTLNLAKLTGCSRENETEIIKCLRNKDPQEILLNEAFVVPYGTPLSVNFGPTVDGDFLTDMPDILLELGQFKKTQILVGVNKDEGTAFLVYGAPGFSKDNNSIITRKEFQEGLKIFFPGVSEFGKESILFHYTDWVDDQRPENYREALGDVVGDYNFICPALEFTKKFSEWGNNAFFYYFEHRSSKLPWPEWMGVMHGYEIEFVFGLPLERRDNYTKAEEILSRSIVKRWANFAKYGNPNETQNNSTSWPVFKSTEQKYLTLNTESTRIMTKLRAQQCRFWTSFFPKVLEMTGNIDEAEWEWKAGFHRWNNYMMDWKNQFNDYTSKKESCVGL

Cholinesterase [14] = target: Cholinesterase (Equus caballus, UniProt P81908); test: Inhibition of horse serum BChE using acetylthiocholine iodide or butyrylthiocholine iodide as substrate preincubated for 5 mins followed by substrate addition by Ellman's method
Chain of Cholinesterase (Equus caballus, UniProt P81908) (P81908 whole entry): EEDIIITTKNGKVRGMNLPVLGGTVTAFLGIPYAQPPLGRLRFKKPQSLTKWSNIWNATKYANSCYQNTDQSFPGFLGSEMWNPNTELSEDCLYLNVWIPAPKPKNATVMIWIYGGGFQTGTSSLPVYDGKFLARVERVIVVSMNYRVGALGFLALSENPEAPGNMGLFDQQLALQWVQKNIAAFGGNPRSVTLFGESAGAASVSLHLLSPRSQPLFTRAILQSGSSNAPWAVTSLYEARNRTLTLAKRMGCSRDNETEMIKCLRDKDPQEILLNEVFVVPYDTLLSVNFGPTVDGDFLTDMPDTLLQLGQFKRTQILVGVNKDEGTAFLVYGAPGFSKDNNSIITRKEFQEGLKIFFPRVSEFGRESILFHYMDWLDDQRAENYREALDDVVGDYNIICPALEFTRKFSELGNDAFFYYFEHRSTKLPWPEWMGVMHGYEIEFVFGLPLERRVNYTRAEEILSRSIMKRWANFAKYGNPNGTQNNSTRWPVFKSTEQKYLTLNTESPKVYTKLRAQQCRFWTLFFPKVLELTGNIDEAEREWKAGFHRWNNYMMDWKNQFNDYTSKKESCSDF

For `CN(C)Cc1ccccc1CNC(=O)c1cccc(NC(=O)c2cccs2)c1`, the Activity (PC-12 [1]) was “Non-Toxic”, the viability at 10 µM [2] was over 70% and the Activity (BV-2) was “Non-Toxic”. For the same compound, the Papp at 18 h [3] was 6.82 ×10⁻⁶ cm/s, the viability at 5 µM (SH-SY5Y [4]) was 68% and the viability at 2 µM (SH-SY5Y [5]) was 82.6%. The logP [6] was 1.93, the Activity (SH-SY5Y [7]) was “Non-Toxic” and the viability at 10 µM [8] was over 70%. The Activity (PC-12 [9]) was 61.7%, the viability at 10 µM [10] was over 70% and the Activity (HT-22) was “Non-Toxic”. The viability at 10 µM [11] was over 70% and the Activity (SH-SY5Y [12]) was 64.12%.

For `CCN(CC)Cc1ccccc1CNC(=O)c1cccc(C(=O)Nc2cccs2)c1`, the IC50 (Cholinesterase [13]) was 12.9 nM and the IC50 (Cholinesterase [14]) was 1.19 nM.

In the case of `CN(C)Cc1ccccc1NC(=O)c1cccc(NC(=O)c2cccs2)c1`, the IC50 (Cholinesterase [13]) is reported as 1240 nM.

In the case of `CCN(CC)Cc1ccccc1CNC(=O)c1cccc(NC(=O)c2ccc(Cl)cc2)c1`, the Papp at 18 h [3] is reported as 6.02 ×10⁻⁶ cm/s, the IC50 (Cholinesterase [13]) is reported as 0.76 nM and the IC50 (Cholinesterase [14]) is reported as 1.02 nM. It also gave a logP [6] of 2.67.

For `CCN(CC)Cc1ccccc1CNC(=O)c1cccc(NC(=O)c2c(F)c(F)c(F)c(F)c2F)c1`, the IC50 (Cholinesterase [13]) was 1.28 nM and the IC50 (Cholinesterase [14]) was 0.48 nM.

Work on `CCN(CC)Cc1ccccc1CNC(=O)c1ccccc1NC(=O)c1ccc(F)cc1` yielded an IC50 (Cholinesterase [13]) of 115 nM and an IC50 (Cholinesterase [14]) of 187 nM.

`CCN(CC)Cc1ccccc1CNC(=O)c1cccc(NC(=O)c2ccccc2F)c1` gave an IC50 (Cholinesterase [13]) of 5.04 nM and an IC50 (Cholinesterase [14]) of 6.54 nM.

For `CCN(CC)Cc1ccccc1CNC(=O)c1cccc(NC(=O)c2ccc(C)cc2)c1`, the Activity (PC-12 [1]) was “Non-Toxic”, the viability at 10 µM [2] was over 70% and the Activity (BV-2) was “Non-Toxic”. For the same compound, the IC50 (Cholinesterase [13]) was 45 nM, the IC50 (Cholinesterase [14]) was 77.3 nM and the Activity (SH-SY5Y [7]) was “Non-Toxic”. For the same compound, the viability at 10 µM [8] was over 70%, the viability at 10 µM [10] was over 70% and the Activity (HT-22) was “Non-Toxic”. The viability at 10 µM [11] was over 70%.

With `O=C(NCc1ccccc1)c1cccc(NC(=O)c2cccs2)c1` the IC50 (Cholinesterase [13]) was 31300 nM and the IC50 (Cholinesterase [14]) was 97300 nM.

Work on `CCN(CC)Cc1ccccc1CNC(=O)c1cccc(NC(=O)c2ccc(Br)cc2)c1` yielded an IC50 (Cholinesterase [13]) of 0.13 nM, an IC50 (Cholinesterase [14]) of 0.087 nM and a logP [6] of 2.73.

`CCN(CC)Cc1ccccc1NC(=O)c1cccc(NC(=O)c2cccs2)c1` showed an IC50 (Cholinesterase [13]) of 540 nM.

For `CCN(CC)Cc1ccccc1CNC(=O)c1cccc(NC(=O)c2ccco2)c1`, the Activity (PC-12 [1]) was “Non-Toxic”, the viability at 10 µM [2] was over 70% and the Activity (BV-2) was “Non-Toxic”. The Papp at 18 h [3] was 6.89 ×10⁻⁶ cm/s, the IC50 (Cholinesterase [13]) was 0.26 nM and the Activity (SH-SY5Y [7]) was “Non-Toxic”. For the same compound, the viability at 10 µM [8] was over 70%, the viability at 10 µM [10] was over 70% and the Activity (HT-22) was “Non-Toxic”. For the same compound, the viability at 10 µM [11] was over 70%.

For `CCN(CC)Cc1ccccc1CNC(=O)c1cc(NC(=O)c2ccc(F)cc2)ccc1Br`, the IC50 (Cholinesterase [13]) was 16.1 nM and the IC50 (Cholinesterase [14]) was 3.53 nM.

With `CCN(CC)Cc1ccccc1CNC(=O)c1cc(C#N)cc(NC(=O)c2ccc(F)cc2)c1` the IC50 (Cholinesterase [13]) was 3.16 nM and the IC50 (Cholinesterase [14]) was 1.51 nM.

In the case of `CCN(CC)Cc1ccccc1CNC(=O)c1cc(Cl)cc(NC(=O)c2ccc(F)cc2)c1`, the Activity (PC-12 [1]) is reported as “Non-Toxic”, the viability at 10 µM [2] is reported as over 70% and the Activity (BV-2) is reported as “Non-Toxic”. It also gave a Papp at 18 h [3] of 7.54 ×10⁻⁶ cm/s, an IC50 (Cholinesterase [13]) of 0.22 nM and an IC50 (Cholinesterase [14]) of 0.16 nM. The logP [6] was 1.11, the Activity (SH-SY5Y [7]) was “Non-Toxic” and the viability at 10 µM [8] was over 70%. For the same compound, the viability at 10 µM [10] was over 70%, the Activity (HT-22) was “Non-Toxic” and the viability at 10 µM [11] was over 70%.

In the case of `CCN(CC)Cc1ccc(CNC(=O)c2cccc(NC(=O)c3cccs3)c2)cc1`, the IC50 (Cholinesterase [13]) is reported as 3440 nM and the IC50 (Cholinesterase [14]) is reported as 5950 nM.

For `CCN(CC)Cc1cccc(CNC(=O)c2cccc(NC(=O)c3cccs3)c2)c1`, the IC50 (Cholinesterase [13]) was 48900 nM and the IC50 (Cholinesterase [14]) was 55000 nM.

Compound `CCN(CC)Cc1ccccc1CNC(=O)c1cc(F)cc(NC(=O)c2ccc(F)cc2)c1` has an IC50 (Cholinesterase [13]) of 0.61 nM, an IC50 (Cholinesterase [14]) of 0.55 nM and a logP [6] of 1.36.

For `CCN(CC)Cc1ccccc1CNC(=O)c1ccc(C)c(NC(=O)c2ccc(F)cc2)c1`, the IC50 (Cholinesterase [13]) was 135 nM and the IC50 (Cholinesterase [14]) was 0.38 nM.

With `CCN(CC)Cc1ccccc1CNC(=O)c1cc(NC(=O)c2ccc(F)cc2)cc(C(F)(F)F)c1` the IC50 (Cholinesterase [13]) was 8.67 nM and the IC50 (Cholinesterase [14]) was 1.35 nM.

In the case of `CCN(CC)Cc1ccccc1CNC(=O)c1cccc(NC(=O)c2ccc(OC)cc2)c1`, the Activity (PC-12 [1]) is reported as “Non-Toxic”, the viability at 10 µM [2] is reported as over 70% and the Activity (BV-2) is reported as “Non-Toxic”. For the same compound, the Activity (SH-SY5Y [7]) was “Non-Toxic”, the viability at 10 µM [8] was over 70% and the viability at 10 µM [10] was over 70%. For the same compound, the Activity (HT-22) was “Non-Toxic” and the viability at 10 µM [11] was over 70%.
